Measured values as given in patent US8574551B2, “Compositions useful for reducing nephrotoxicity and methods of use thereof” (Verrow Pharmaceuticals, Inc., priority 2005, dated 2013).

Key:
kidney [1] = assay: Captisol-MTX time studies, kidney histopathology at 24 hrs, 48 hrs, 1 week; assay type: in vivo, mice
Protocol: For light microscopic investigation, kidneys were fixed in 10% buffered formalin and processed routinely for paraffin embedding. Tissue sections of 5 micron meter were stained with hematoxylin and eosine and examined under a Nikon coolpix light microscope, photography was done with a Nikon Coolpix camera. The severity of total kidney damage was evaluated by a semiquantitative measurement of damage as described below. Each tissue section of the kidney was assessed for degeneration of glomerular structure, glomerular crowding and congestion, dilation of bowman space, degeneration of proximal and distal tubules, and dilation of renal tubules, vascular congestion, and inflammatory cell infiltration. For glomerular atrophy, glomeruli that contained more than 20 nuclei were scored “0”, and those containing less than 10 nuclei were scored “4.” Intermediate stages were 1, 2 and 3. Other criterion was scored on a 0-3 scale: 0=none; 1=mild; 2=moderate; and 3=severe. The microscopic score of each tissue was calculated as the sum of the scores given to each criterion and at least 100 nephrons (glomeruli plus surrounding tubules) were analyzed per section. See, e.g., Bhat et al., PNAS (2003) 100(7); Sener et al., Cell Biol Toxicol (2006) 22:[…].

[2] = MTX-captisol solubility: rate of precipitation of MTX at pH 5.0 in presence and absence of captisol; assay type: physicochemical; conditions: for Amount of MTX in solution 1:25 dilution: diluted sample, pH 5.0, MTX added 0.91 mg/ml; for conc. of MTX (molarity of mtx): pH 5.0, Concentration of MTX added 0.002M
Protocol: Solubility studies were performed to determine whether Captisol could prevent the precipitation of MTX over a time period greater than transit time of MTX through the kidney (i.e., less than 2 minutes). Each solution was acidified with HCl, centrifuged and aliquots of the supernatant removed as a function of time, and the concentration of MTX in solution was measured spectrophometrically.

kidney [3] = assay: Methotrexate induced nephrotoxicity model in mice, HPβCD; assay type: in vivo, C57BL/6 mice; conditions: normal mice; MTX 80 mg/kg single IV injection alone; 24 hrs
Protocol: To determine the protective effect of other cyclodextrin molecules, 2-hydroxypropyl β-cyclodextrin (HPβCD) was evaluated. Female C57BL/6 mice were injected intravenously with a single dose of methotrexate 80 mg/kg, IV, or methotrexate+HPβCD, IV, at methotrexate to HPβCD molar ratios of 1:1 and 1:0.5. The animals were sacrificed after 24 hrs. The development of glomerular and tubulointerstitial injury after methotrexate and protection by methotrexate+HPβCD was evaluated by means of assessment of renal histology by light microscopy. Leukovorin was given 4 hrs and after 18 hrs. Urine was not alkalinized.
Paraffin sections of […] were cut and stained with H&E and periodic acid Schiff (PAS). They were examined by light microscopy and scored in a blinded fashion. Five arbitratary fields at 40× magnification in each sections was assessed for the parameters, and scored according to the criteria, set forth in Example 7.

kidney [4] = assay: Renal pathology in EAE mice after MTX or MTX+Captisol; assay type: in vivo, C57BL6 mice; conditions: MTX 40 mg/kg single intravenous bolus, no Captisol
Protocol: Injection volume were between 100-120 μl. […] Leukovorin, the active metabolite of folic acid, is typically given with methotrexate in anti-cancer chemotherapy to help protect normal cells. Mice were scored daily for disease severity and then sacrificed on day 10 of disease. Brain, kidney and spleen were formalin fixed. […] For light microscopic investigation, kidneys were fixed in 10% buffered formalin and processed routinely for paraffin embedding. Tissue sections of 5 micron meter were stained with hematoxylin and eosine and examined under Nikon coolpix light microscope. The severity of total kidney damage was evaluated by a semiquantitative measurement of damage as described. Each tissue section of the kidney was assessed for degeneration of glomerular structure, glomerular crowding and congestion, dilation of bowman space, degeneration of proximal and distal tubules, and dilation of renal tubules, vascular congestion, and inflammatory cell infiltration. For glomerular atrophy, glomeruli that contained more than 20 nuclei were scored “0”, and those containing less than 10 nuclei were scored “4.” Intermediate stages were 1, 2 and 3. Other criterion was scored on a 0-3 scale: 0=none; 1=mild; 2=moderate; 3=severe. […]

kidney [5] = assay: Histopathological changes in the kidney after single bolus intravenous MTX with or without captisol at different molar ratios; assay type: in vivo; conditions: normal mice, 48 hours
Protocol: A study of histopathological changes in the kidney after single bolus intravenous MTX with or without concurrent captisol at different molar ratios was performed.
MTX solutions were prepared as follows. Solution A (24 mg/ml (53 mM)) was prepared from stock solution of 25 mg/ml (Methotrexate from Bedford laboratories) in sterile PBS (total volume 6 mL). Solution B was prepared by diluting 3 ml of Solution A to 1:1.33 in PBS to obtain a working dilution of 18 mg/mL (39.6 mM), pH 7.4. Solution C was prepared by diluting 2 mL of solution A 1:2 to obtain a working dilution of 12 mg/mL (26.4 mM), pH 7.2.
MTX+Captisol solutions were prepared as follows. Solution D was made by adding 57.32 mg Captisol to an aliquot of 500 micro liter of solution A (molar ratio 1:1, neutral pH). […]
MTX and Captisol were administered to 8 groups of mice (Groups I-VIII; see Table 3) via tail vein by a single injection in a volume of 100-120 μL. […] Clinical symptoms, body weights were recorded. […]
Semi quantitative estimates of total kidney damage in mice treated with MTX 80 mg/kg, 120 mg/kg, and a combination of MTX+Captisol at MTX to Captisol molar ratio of 1:1 and 1:0.5, are shown in FIG. 4. […] Hematoxylin and eosin sections of paraffin embedded kidney were analyzed microscopically for extent of renal damage. Data is expressed as mean±SEM. […]

kidney tissue histopathological changes (FIG. 5) (kidney [1]; normal mice, MTX 160 mg/kg single iv bolus, 24 and 48 hours): extensive histopathological changes
Amount of MTX in solution 1:25 dilution ([2]; 5 min after adding acid): 3.449 µg/mL
Amount of MTX in solution 1:25 dilution ([2]; 10 min after adding acid): 2.509 µg/mL
Amount of MTX in solution 1:25 dilution ([2]; 15 min after adding acid): 3.177 µg/mL
Amount of MTX in solution 1:25 dilution ([2]; 20 min after adding acid): 3.844 µg/mL
Amount of MTX in solution 1:25 dilution ([2]; 30 min after adding acid): 3.807 µg/mL
Amount of MTX in solution 1:25 dilution ([2]; 40 min after adding acid): 3.3 µg/mL
Amount of MTX in solution 1:25 dilution ([2]; 50 min after adding acid): 3.412 µg/mL
Amount of MTX in solution 1:25 dilution ([2]; 60 min after adding acid): 3.906 µg/mL
conc. of MTX (molarity of mtx) ([2]; 5 min after adding acid): 189.7 µM
conc. of MTX (molarity of mtx) ([2]; 10 min after adding acid): 138 µM
conc. of MTX (molarity of mtx) ([2]; 15 min after adding acid): 174.7 µM
conc. of MTX (molarity of mtx) ([2]; 20 min after adding acid): 211.4 µM
conc. of MTX (molarity of mtx) ([2]; 30 min after adding acid): 209.4 µM
conc. of MTX (molarity of mtx) ([2]; 40 min after adding acid): 181.5 µM
conc. of MTX (molarity of mtx) ([2]; 50 min after adding acid): 187.6 µM
conc. of MTX (molarity of mtx) ([2]; 60 min after adding acid): 214.8 µM
SMILES: CN(Cc1cnc2nc(N)nc(N)c2n1)c1ccc(C(=O)N[C@@H](CCC(=O)O)C(=O)O)cc1 [MTX, N-[4-[[(2,4-diamino-6pteridinyl)methyl]methylamino]benzoyl]-L-glutamicacid]
kidney histopathology (H&E) (kidney [1]; MTX 160 mg/kg alone, 24 hours post injection): degeneration of glomerular structure and dilation of Bowman's space, degeneration of proximal and distal tubules and inflammatory cell infiltration
kidney histopathology (H&E) (kidney [1]; MTX 160 mg/kg i.v. alone, 48 hours post injection): degeneration of glomerular structure, dilation of Bowman's space, dilation of proximal and distal tubules, degeneration of proximal and distal tubules and inflammatory cell infiltration
kidney histopathology (H&E) (kidney [1]; MTX 160 mg/kg single i.v. bolus alone, 1 week): degeneration of proximal and distal tubules with occasional glomerular atrophy or crowding
renal histology (kidney [3]): significant histopathological changes in the kidney
kidney sections, morphological changes (kidney [4]): dilation of renal tubules and degeneration of proximal tubules
kidney histopathology (H&E) (kidney [5]; MTX 80 mg/kg iv bolus alone): dilation of tubules, degenerative changes in the tubules, hypercellularity in the glomerulus and atypical collection of interstitial cells and convulated tubules
kidney histopathology (H&E) (kidney [5]; MTX 120 mg/kg IV alone): glomerular atrophy, degeneration of basement membrane on bowman capsule, degenerative changes in the tubules, hypercellularity in the glomerulus and infiltration of mononuclear cells
